Experimental data reported in the OligoGym collection.
After the bases stand the sugars from the 5' end (letter, count) and the backbone: PS all phosphorothioate, else s phosphorothioate and o phosphodiester by linkage. Methylation of C is not given here. e = 2'-O-(2-methoxyethyl) (MOE); k = constrained ethyl (cEt); d = 2'-deoxy (DNA); m = 2'-O-methyl

Biological target: HSD17B13
Settings: ASO, HepaRG

Sequence	target mRNA inhibition (1 µM)	further results
AATACAGGATAGAGCA (sugars k3 d10 k3, PS)	0%	–
TGATUGAGTTCTCCAC (sugars k3 d1 m1 d8 k3, PS)	4%	–
CAAGAGGATAGTCCAT (sugars kkdddddddddkekek, PS)	22%	–
ACAGTTCCTTTTCCTG (sugars k3 d10 k3, PS)	58%	–
GGCAAATTTGCTGGAA (sugars k3 d10 k3, PS)	54%	–
ACATCCAAGTAATTAC (sugars k3 d10 k3, PS)	56%	–
GGGAGGTAGCTTTTGT (sugars kkdddddddddkekek, PS)	66%	–
GAACATACATTGTTGC (sugars k3 d10 k3, PS)	58%	–
TTAGAAGTCAGCCCAA (sugars k3 d10 k3, PS)	37%	–
CCTTTGTATTTCGCTA (sugars k3 d10 k3, PS)	47%	–
GGCAGTTGAAGTTGAT (sugars k3 d10 k3, PS)	46%	–
GACCATGCTGCTACTC (sugars k3 d10 k3, PS)	74%	–
ATATAACATGGCTGGC (sugars k3 d10 k3, PS)	29%	–
TAACTGAGCTAGACAA (sugars k3 d10 k3, PS)	53%	–
AGCAGAATTGTGAACG (sugars k3 d10 k3, PS)	67%	–
GGAATGCTACTTGAAC (sugars k3 d9 k3 e1, PS)	68%	–
TCTAAAGGGCTGCTCT (sugars k3 d10 k3, PS)	33%	–
ATATTCTGTGGCATGG (sugars k3 d9 k3 e1, PS)	58%	–
CTGTGTTAGCTTTAAT (sugars kkdddddddddkekek, PS)	47%	–
TGGTAACGGTGATCAA (sugars kkdddddddddkekek, PS)	26%	–
TGACAATGGTTGATAG (sugars kkdddddddddkekek, PS)	37%	–
ATTATACTTTTCCGTC (sugars k3 d10 k3, PS)	75%	target mRNA inhibition (0.02 µM): 12%; target mRNA inhibition (0.078 µM): 0%; target mRNA inhibition (0.313 µM): 47%; target mRNA inhibition (1.25 µM): 75%; target mRNA inhibition (5 µM): 84%
TGAGCTAGACAATTGC (sugars k3 d10 k3, PS)	78%	–
CTGGAACAATATGGGA (sugars k3 d1 m1 d9 k2, PS)	45%	–
TAATGTATGAGGTCTC (sugars k3 d10 k3, PS)	51%	–
ATAGAGTTGCACCGTT (sugars kkdddddddddkekek, PS)	45%	–

Sequence	target mRNA inhibition (1 µM)	further results
ATTCTGTGGCATGGCT (sugars k3 d10 k3, PS)	69%	–
TGCTAGTAATTGCATC (sugars k3 d10 k3, PS)	17%	–
CCTGTGTTAGCTTTAA (sugars kkdddddddddkekek, PS)	62%	–
ATCTATCAGACTTCTT (sugars k3 d1 m1 d8 k3, PS)	34%	–
GAGTAAACGACTCTGT (sugars k3 d10 k3, PS)	43%	–
GGTCAGTAGAGAGCAT (sugars k3 d10 k3, PS)	79%	–
CAATTTACTTTCAGCC (sugars k3 d10 k3, PS)	71%	target mRNA inhibition (0.02 µM): 0%; target mRNA inhibition (0.078 µM): 18%; target mRNA inhibition (0.313 µM): 37%; target mRNA inhibition (1.25 µM): 76%; target mRNA inhibition (5 µM): 86%
TCGCCTAAAGGAGATC (sugars k3 d10 k3, PS)	70%	–
GACAUGAGGTTTTGAT (sugars k3 d1 m1 d8 k3, PS)	34%	–
TTAGTTAGAATAGTCT (sugars k3 d9 k3 e1, PS)	67%	–
ATGACATAGACATGTG (sugars k3 d10 k3, PS)	23%	–
GTAATCACAAGTAAGG (sugars k3 d9 k3 e1, PS)	56%	–
GTAAGTATTCCATCTA (sugars kkdddddddddkekek, PS)	53%	–
AATGCTACTTGAACAG (sugars k3 d10 k3, PS)	54%	–
TAAGAGGCATGAAAGG (sugars kkdddddddddkekek, PS)	54%	–
GCCTGCTGAAACTTGA (sugars k3 d10 k3, PS)	18%	–
CATTATCCTTACTCCC (sugars k3 d10 k3, PS)	16%	–
AAACAAGAGGATAGTC (sugars kkkdddddddkdkkke, PS)	45%	–
GTCTTGATGTAGTGGG (sugars k3 d10 k3, PS)	67%	target mRNA inhibition (0.02 µM): 17%; target mRNA inhibition (0.078 µM): 22%; target mRNA inhibition (0.313 µM): 41%; target mRNA inhibition (1.25 µM): 72%; target mRNA inhibition (5 µM): 87%
GCAATTTACTTTCAGC (sugars k3 d10 k3, PS)	66%	–
ACCTGATTTAGAGAGC (sugars k3 d10 k3, PS)	65%	–
GTGGGATAAACTGTTC (sugars k3 d10 k3, PS)	52%	–
GTGAAATCTTGTGTAA (sugars k3 d10 k3, PS)	44%	–
ACCACATAGCTAACTC (sugars k3 d10 k3, PS)	50%	–
TCTCUTAGCTGTGCAC (sugars k3 d1 m1 d8 k3, PS)	49%	–
AGTTTTCGGCACTCAG (sugars k3 d10 k3, PS)	16%	–

Sequence	target mRNA inhibition (1 µM)	further results
TCTATTATGCACTCTA (sugars k3 d10 k3, PS)	55%	–
CCGAATTATTTCTTGC (sugars k3 d10 k3, PS)	60%	–
CCTTTTAACTACCCTC (sugars k3 d10 k3, PS)	22%	–
GTTAGTATAGTTATCT (sugars kkdddddddddkekek, PS)	51%	–
ATATATACCTGTTGCC (sugars k3 d10 k3, PS)	28%	–
CTAAAATTGTCTAAAC (sugars k3 d10 k3, PS)	35%	–
AGCAGAATTGTGAACG (sugars k3 d1 m1 d8 k3, PS)	51%	–
CCCCAAACATGGATGT (sugars k3 d10 k3, PS)	62%	–
AAAGCCCTATTCTTCG (sugars k3 d10 k3, PS)	65%	–
TGCACCGTTTTGGGCT (sugars kkdddddddddkekek, PS)	29%	–
AGTTAGTATAGTTATC (sugars k3 d9 k3 e1, PS)	47%	–
GAATGCTACTTGAACA (sugars kkdddddddddkekek, PS)	48%	–
CTACTTCACTATATTG (sugars k3 d10 k3, PS)	33%	–
TCTAAATTACTCCGTT (sugars k3 d10 k3, PS)	15%	–
AGTTTTCACCTCAGGT (sugars k3 d10 k3, PS)	82%	–
TACCAAGAGGGTTTTT (sugars k3 d10 k3, PS)	17%	–
CTTGAACAGTCTTAAA (sugars kkdddddddddkekek, PS)	38%	–
GATTACAGCATCAAGA (sugars k3 d10 k3, PS)	52%	–
GTATGTTTATGTAAGC (sugars k3 d10 k3, PS)	80%	target mRNA inhibition (0.02 µM): 0%; target mRNA inhibition (0.078 µM): 16%; target mRNA inhibition (0.313 µM): 33%; target mRNA inhibition (1.25 µM): 77%; target mRNA inhibition (5 µM): 87%
GCCAGATTGCACAAAC (sugars k3 d10 k3, PS)	60%	–
GGAGTGCATCTTAAGA (sugars k3 d9 k3 e1, PS)	40%	–
TATAGCTAAGTATACT (sugars k3 d10 k3, PS)	23%	–
CATACCACATACCCAT (sugars k3 d10 k3, PS)	0%	–
TATTAAGACAGTTGAG (sugars k3 d10 k3, PS)	44%	–
GTTCTTATCCACACCT (sugars k3 d10 k3, PS)	57%	–
CGTAAATATTCTTGAG (sugars k3 d10 k3, PS)	61%	–

Sequence	target mRNA inhibition (1 µM)	further results
TTCCATCTATCAGACT (sugars k3 d9 k3 e1, PS)	43%	–
CACCGTTTTGGGCTAA (sugars k3 d9 k3 e1, PS)	71%	–
CAAAAGACTTTGAGAC (sugars k3 d9 k3 e1, PS)	13%	–
GTAGTGTAAGCTGAGA (sugars k3 d10 k3, PS)	81%	–
CCGCCCTTAAGTCATT (sugars k3 d10 k3, PS)	53%	–
AGGCCATAATCTTGTG (sugars k3 d10 k3, PS)	33%	–
GGTAAGGAATCCCTTC (sugars k3 d10 k3, PS)	43%	–
GGCTAAAATGGTCATC (sugars k3 d10 k3, PS)	75%	–
CATAAGAGCCAAACTG (sugars k3 d10 k3, PS)	27%	–
GCCTAGTTGCAATGAG (sugars k3 d10 k3, PS)	61%	–
ATGGCTACAGATTGGA (sugars k3 d9 k3 e1, PS)	65%	–
GACTTCTTACGACTTC (sugars k3 d10 k3, PS)	38%	–
GTAATTGCTATAGTAA (sugars k3 d10 k3, PS)	33%	–
AGAAGATCGGCTGGAT (sugars k3 d10 k3, PS)	29%	–
CCTCGATCCTATATAC (sugars k3 d10 k3, PS)	31%	–
CACTTTTGGTGGACTT (sugars k3 d10 k3, PS)	21%	–
CCAAGTAATTACTTCT (sugars k3 d10 k3, PS)	68%	–
CAGAGTTATTGTAGGG (sugars k3 d10 k3, PS)	83%	target mRNA inhibition (0.02 µM): 16%; target mRNA inhibition (0.078 µM): 24%; target mRNA inhibition (0.313 µM): 51%; target mRNA inhibition (1.25 µM): 74%; target mRNA inhibition (5 µM): 93%
ACAGACTAAGGGACCA (sugars k3 d10 k3, PS)	68%	–
ATGCATAAGAGATGAG (sugars k3 d10 k3, PS)	30%	–
ATTAACTACTTCACTA (sugars k3 d10 k3, PS)	14%	–
AAAACATTGCTCTTCG (sugars k3 d10 k3, PS)	59%	–
ATCCAGTAGGTGTGTT (sugars k3 d10 k3, PS)	41%	–
